PubChem BioAssay AID330 (DTP/NCI, 2004)
“And” between values parts separate entries of the source, which are not always exact repeats. Equal values may be shown once. Toxic doses and inconclusive results are not listed. Rule for the calls: active = survival T/C of 150% or more; inactive = T/C below 125% in these data.

Tested on: P388 leukemia ip, CD2F1 mice, survival T/C
Assay: NCI In Vivo Anticancer Drug Screen. Data for tumor model P388 Leukemia (intraperitoneal) in CD2F1 (CDF1) mice
Conditions: endpoint: median survival time, higher = longer survival
Outline: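 Mice carrying the transplanted tumor received test compound or vehicle. Survival was recorded in each group, and the value is the treated-group measurement divided by that of the vehicle-treated control group.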

[1] = dose: 25.0 mg/kg/injection, schedule: Q01DX005 (ip), vehicle: Klucel (hydroxypropylcellulose) (HPC)
[2] = dose: 50.0 mg/kg/injection, schedule: Q01DX005 (ip), vehicle: Klucel (hydroxypropylcellulose) (HPC)
[3] = dose: 100.0 mg/kg/injection, schedule: Q01DX005 (ip), vehicle: Klucel (hydroxypropylcellulose) (HPC)
[4] = dose: 200.0 mg/kg/injection, schedule: Q01DX005 (ip), vehicle: Klucel (hydroxypropylcellulose) (HPC)
[5] = dose: 50.0 mg/kg/injection, schedule: Q01DX005 (ip), vehicle: saline with Tween-80
[6] = dose: 100.0 mg/kg/injection, schedule: Q01DX005 (ip), vehicle: saline with Tween-80
[7] = dose: 200.0 mg/kg/injection, schedule: Q01DX005 (ip), vehicle: saline with Tween-80
[8] = dose: 100.0 mg/kg/injection, schedule: Q01DX009 (ip), vehicle: saline with Tween-80
[9] = dose: 200.0 mg/kg/injection, schedule: Q01DX009 (ip), vehicle: saline with Tween-80

Measured: T/C

O=C(Nc1ccc(N=C(Nc2ccccc2)c2ccccc2)cc1)c1ccc(C(=O)Nc2ccc(N=C(Nc3ccccc3)c3ccccc3)cc2)cc1
inactive: [1] 98 % of control | [2] 91 % of control | [3] 91 % of control | [4] 86 % of control

NC(CCN[N+](=O)[O-])C(=O)O (centres undefined)
inactive: [1] 103 % of control | [2] 97 % of control | [3] 96 % of control | [4] 97 % of control

CC1(C)NN=C2C(=CC=C3NNC(C)(C)N32)n2cccc21
inactive: [5] 104 % of control | [6] 106 % of control

N#C/C(=N\Nc1ccc(F)cc1)C(=O)C1CC1
inactive: dose: 15.0 mg/kg/injection, schedule: Q01DX005 (ip), vehicle: Klucel (hydroxypropylcellulose) (HPC) 100 % of control | dose: 30.0 mg/kg/injection, schedule: Q01DX005 (ip), vehicle: Klucel (hydroxypropylcellulose) (HPC) 106 % of control | dose: 60.0 mg/kg/injection, schedule: Q01DX005 (ip), vehicle: Klucel (hydroxypropylcellulose) (HPC) 98 % of control

COc1ccc(N/N=C(/c2ccccc2)c2noc(-c3ccccc3)n2)cc1
inactive: [2] 101 % of control | [3] 94 % of control | [4] 93 % of control

Cc1cccc(Nc2nnc(Nc3cccc(C)n3)c3ccccc23)n1
inactive: [5] 95 % of control | [6] 91 % of control | [7] 92 % of control

CCCCCCCCCCCCCCCCCC(N)=S
inactive: dose: 12.5 mg/kg/injection, schedule: Q01DX005 (ip), vehicle: Klucel + Tween-80 95 % of control | dose: 25.0 mg/kg/injection, schedule: Q01DX005 (ip), vehicle: Klucel + Tween-80 95 % of control | dose: 50.0 mg/kg/injection, schedule: Q01DX005 (ip), vehicle: Klucel + Tween-80 86 % of control and 94 % of control | dose: 200.0 mg/kg/injection, schedule: Q01DX005 (ip), vehicle: Klucel + Tween-80 87 % of control

Cc1ccc(NS(=O)(=O)c2ccc(Cl)cc2)cc1Cl
inactive: [8] 104 % of control | [9] 98 % of control | dose: 400.0 mg/kg/injection, schedule: Q01DX009 (ip), vehicle: saline with Tween-80 100 % of control

CN1C(=O)CC(NC(=O)CNC(=O)c2ccccc2)C1=O (centres undefined)
inactive: dose: 60.0 mg/kg/injection, schedule: Q01DX005 (ip), vehicle: saline with Tween-80 97 % of control | dose: 120.0 mg/kg/injection, schedule: Q01DX005 (ip), vehicle: saline with Tween-80 94 % of control | dose: 240.0 mg/kg/injection, schedule: Q01DX005 (ip), vehicle: saline with Tween-80 90 % of control

O=C(c1cc(Nc2ccnc3cc(Cl)ccc23)ccc1O)N1CCC(O)(c2ccccc2)CC1
inactive: [5] 102 % of control | [6] 108 % of control | [7] 109 % of control

CCCCOC(=O)C(c1ccccc1)C1(C)Sc2ccccc2NC1=O (centres undefined)
inactive: dose: 12.5 mg/kg/injection, schedule: Q01DX001 (ip), vehicle: saline with Tween-80 95 % of control | dose: 25.0 mg/kg/injection, schedule: Q01DX001 (ip), vehicle: saline with Tween-80 96 % of control | dose: 50.0 mg/kg/injection, schedule: Q01DX001 (ip), vehicle: saline with Tween-80 98 % of control

CCC1=[N+](C)c2ccccc2C1(C)C
inactive: dose: 25.0 mg/kg/injection, schedule: Q04DX003 (ip), vehicle: saline 100 % of control | dose: 50.0 mg/kg/injection, schedule: Q04DX003 (ip), vehicle: saline 99 % of control | dose: 100.0 mg/kg/injection, schedule: Q04DX003 (ip), vehicle: saline 107 % of control

O=c1ccc2ccc3[nH]onc3c2c1
inactive: [5] 100 % of control | [6] 93 % of control | [7] 88 % of control

CCN(CC)c1nc(Cl)nc(N(CC)CC)n1
inactive: dose: 25.0 mg/kg/injection, schedule: Q01DX005 (ip), vehicle: saline with Tween-80 99 % of control and 97 % of control | [5] 103 % of control [middle of 4 runs] | [6] 106 % of control and 101 % of control and 107 % of control | [7] 113 % of control [middle of 4 runs] | dose: 400.0 mg/kg/injection, schedule: Q01DX005 (ip), vehicle: saline with Tween-80 100 % of control

Cc1c(N(C)C)nc2cc(N(C)C)ccc2c1Cl
inactive: dose: 50.0 mg/kg/injection, schedule: Q01DX009 (ip), vehicle: saline with Tween-80 91 % of control | [8] 92 % of control | [9] 91 % of control
